According to patent US20060079453A1, “Hla binding peptides and their uses” (priority 2002, published 2006):
No end group written: not given here.

How the values were obtained:
Assay in all cases: biochemical
Format in all cases: binding
HLA-DR DRB1*1302 (DR13) = HLA-DR DRB1*1302 (DR13) (Homo sapiens, UniProt P01903+P01911, A100E/A169T/K41T/L162R/M171V/P40S/Q125H/Q178H/Q39Y/Q99D/R42S/S66N/T262R/V115G/W38E/Y61H); settings: DRBI *1302
HLA-DR DRB1*0401 (DR4) = HLA-DR DRB1*0401 (DR4) (Homo sapiens, UniProt P01903+P01911, A100K/A169T/F76Y/I96L/K127E/L162R/M171V/N62H/P40V/Q125Y/R42H/S133A/S149N/S66Y/V115G/V209L/W38E); settings: DRB1 *0401
HLA-DR DRB1*1101 (DR11) = HLA-DR DRB1*1101 (DR11) (Homo sapiens, UniProt P01903+P01911, A100R/A169T/A87E/I96F/K41T/L162R/M171V/P40S/Q125H/Q178H/Q39Y/Q99D/R42S/S66Y/T262R/V115G/W38E); settings: DRB1 *1101
HLA-DR DRB1*0101 (DR1) = HLA-DR DRB1*0101 (DR1) (Homo sapiens, UniProt P01903+P01911, A100R/D57E/F55L/F60I/F76Y/I96L/L162R/M171V/P40L/Q125E/R42F/V115G/Y59C); settings: DRB1 *0101
HLA-DR DRB4*0101 (DR53) = HLA-DR DRB4*0101 (DR53) (Homo sapiens, UniProt P01903+P13762, G164S); settings: DRB4 *0101
HLA-DR DRB1*0802 (DR8) = HLA-DR DRB1*0802 (DR8) (Homo sapiens, UniProt P01903+P01911, A100R/A103L/A169T/F76Y/H45Y/I96F/K41T/L162R/M171V/P40S/Q125H/Q178H/Q39Y/Q99D/R218S/R42G/S66Y/V115G/W38E)
HLA-DR DRB1*0701 (DR7) = HLA-DR DRB1*0701 (DR7) (Homo sapiens, UniProt P01903+P01911, A100R/A102G/A103Q/D57E/D86V/E43K/F76Y/K127E/L162R/M171V/P40G/Q125H/Q99D/R33Q/R42Y/R54Q/S133A/S66F/T210M/V115G/Y107V/Y59L/Y89S); settings: DRB1 *0701
HLA-DR DRB1*1501 (DR15) = HLA-DR DRB1*1501 (DR15) (Homo sapiens, UniProt P01903+P01911); settings: DRBI *1501
HLA-DR DRB3*0101 (DR52) = HLA-DR DRB3*0101 (DR52) (Homo sapiens, UniProt P01903+P79483)
HLA-DR DRB1*0301 (DR3) = HLA-DR DRB1*0301 (DR3) (Homo sapiens, UniProt P01903+P01911, A100K/A102G/A103R/A169T/F55Y/I96L/K41T/L162R/M171V/P40S/Q125H/Q178H/Q39Y/R42S/S66N/T106N/T262R/W38E/Y61H)
HLA-DR DRB5*0101 (DR51) = HLA-DR DRB5*0101 (DR51) (Homo sapiens, UniProt P01903+Q30154); settings: DRB5 *0101
HLA-DR DRB1*0901 (DR9) = HLA-DR DRB1*0901 (DR9) (Homo sapiens, UniProt P01903+P01911, A100R/A103E/D57H/D86V/F55Y/F60I/F76Y/I96F/K127E/L162R/M171V/P40D/Q125H/Q99R/R33Q/R42F/S133A/S66N/T210M/V115G/W38K/Y107V/Y59G/Y89S); settings: DRB1 *0901

Sequence of HLA-DR DRB1*1101 (DR11) (P01903 26-254 limits assumed, other chains not shown): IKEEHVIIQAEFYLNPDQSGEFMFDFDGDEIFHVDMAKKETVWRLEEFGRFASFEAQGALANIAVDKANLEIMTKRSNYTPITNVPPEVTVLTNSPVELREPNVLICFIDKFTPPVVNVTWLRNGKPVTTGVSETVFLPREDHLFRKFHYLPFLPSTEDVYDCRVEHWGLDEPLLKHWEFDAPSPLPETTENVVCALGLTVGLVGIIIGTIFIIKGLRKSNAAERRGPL
Sequence of HLA-DR DRB1*0301 (DR3) (P01903 26-254 limits assumed, other chains not shown): as above
Sequence of HLA-DR DRB1*1302 (DR13) (P01903 26-254 limits assumed, other chains not shown): as above

Row | Molecule | IC50 (HLA-DR DRB1*1302 (DR13)) | IC50 (HLA-DR DRB1*0401 (DR4)) | IC50 (HLA-DR DRB1*1101 (DR11)) | IC50 (HLA-DR DRB1*0101 (DR1)) | IC50 (HLA-DR DRB4*0101 (DR53)) | IC50 (HLA-DR DRB1*0802 (DR8)) | IC50 (HLA-DR DRB1*0701 (DR7)) | IC50 (HLA-DR DRB1*1501 (DR15)) | IC50 (HLA-DR DRB3*0101 (DR52)) | IC50 (HLA-DR DRB1*0301 (DR3)) | IC50 (HLA-DR DRB5*0101 (DR51)) | IC50 (HLA-DR DRB1*0901 (DR9))
1 | LFRVYSNFLRGKLKL | 80 nM | 643 nM | 173 nM | 43 nM | 2330 nM | 28 nM | 5.5 nM | 2.8 nM | 8980 nM | 6160 nM | 2.9 nM | –
2 | CC[C@H](C)[C@H](N)C(=O)N[C@@H](Cc1ccc(O)cc1)C(=O)N[C@@H](CO)C(=O)N[C@H](C(=O)N[C@@H](CO)C(=O)N[C@@H](CCSC)C(=O)N[C@@H](CCCCN)C(=O)N[C@@H](Cc1c[nH]cn1)C(=O)N1CCC[C@H]1C(=O)N[C@@H](CCC(N)=O)C(=O)N[C@@H](CCC(=O)O)C(=O)N[C@@H](CCSC)C(=O)N[C@@H](CCCCN)C(=O)N[C@H](C(=O)N[C@@H](Cc1ccc(O)cc1)C(=O)O)[C@@H](C)O)[C@@H](C)CC | > 35000 nM | 16000 nM | 213 nM | 8450 nM | 5360 nM | 1360 nM | – | – | > 21900 nM | – | 2590 nM | –
3 | ADKIYSISMKHPQEM | 4960 nM | 5310 nM | – | – | 3550 nM | 1140 nM | 4100 nM | 8270 nM | > 21900 nM | – | – | –
4 | GNEIFNTSLFEPPPP | 2800 nM | > 20000 nM | > 40000 nM | 20400 nM | 835 nM | > 163000 nM | > 35700 nM | > 91000 nM | > 13200 nM | – | > 200000 nM | –
5 | VILLGRHSLFHPEDT | 543 nM | 8210 nM | – | 273 nM | 10700 nM | 737 nM | 30600 nM | 426 nM | > 12100 nM | 8740 nM | ≥ 100000 nM | –
6 | CC[C@H](C)[C@H](N)C(=O)N[C@@H](CC(C)C)C(=O)N[C@@H](CC(C)C)C(=O)N[C@@H](Cc1c[nH]c2ccccc12)C(=O)N[C@@H](CCC(N)=O)C(=O)N1CCC[C@H]1C(=O)N[C@H](C(=O)N1CCC[C@H]1C(=O)N[C@H](C(=O)N[C@@H](Cc1c[nH]cn1)C(=O)N[C@H](C(=O)N[C@H](C(=O)N1CCC[C@H]1C(=O)N[C@@H](CC(C)C)C(=O)N[C@@H](CO)C(=O)O)C(C)C)[C@@H](C)O)C(C)C)[C@@H](C)CC | 1110 nM | 170 nM | 2340 nM | 45 nM | 712 nM | – | 19 nM | 65 nM | > 8830 nM | > 81800 nM | 28800 nM | 131 nM
7 | QWVLTAAHCLKKNSQ | > 35000 nM | > 40000 nM | – | 895 nM | 14400 nM | 98000 nM | 3400 nM | > 45500 nM | > 14900 nM | – | 382 nM | 4810 nM
8 | CSCC[C@H](NC(=O)CNC(=O)[C@H](CC(C)C)NC(=O)[C@H](CCC(N)=O)NC(=O)[C@@H](NC(=O)[C@H](CC(C)C)NC(=O)[C@H](CCC(N)=O)NC(=O)CNC(=O)[C@@H](N)Cc1ccccc1)[C@@H](C)O)C(=O)N[C@@H](CCC(=O)O)C(=O)N[C@@H](CCC(N)=O)C(=O)N[C@@H](Cc1c[nH]cn1)C(=O)N[C@@H](Cc1ccc(O)cc1)C(=O)N[C@@H](CCC(=O)O)C(=O)N[C@@H](CC(C)C)C(=O)O | > 35000 nM | 3210 nM | – | 2260 nM | 543 nM | 110000 nM | > 62500 nM | > 22800 nM | > 14400 nM | – | ≥ 100000 nM | > 187000 nM
9 | CC(C)C[C@H](NC(=O)[C@@H](NC(=O)[C@H](CCC(N)=O)NC(=O)[C@H](Cc1c[nH]c2ccccc12)NC(=O)[C@@H]1CCCN1C(=O)[C@H](CCC(N)=O)NC(=O)[C@@H](N)CO)C(C)C)C(=O)N[C@H](C(=O)N[C@@H](C)C(=O)N[C@@H](CO)C(=O)N[C@@H](CCCNC(=N)N)C(=O)NCC(=O)N[C@@H](CCCNC(=N)N)C(=O)N[C@@H](C)C(=O)N[C@H](C(=O)O)C(C)C)C(C)C | 32 nM | 7630 nM | – | 66 nM | 7560 nM | 386 nM | – | 11300 nM | > 12100 nM | > 81800 nM | 84 nM | –
10 | CC[C@H](C)[C@H](NC(=O)CNC(=O)[C@H](Cc1ccc(O)cc1)NC(=O)[C@H](CC(C)C)NC(=O)[C@H](CO)NC(=O)[C@H](CC(C)C)NC(=O)[C@H](CC(C)C)NC(=O)[C@H](CO)NC(=O)[C@H](CC(C)C)NC(=O)[C@H](CCC(=O)O)NC(=O)[C@H](CO)NC(=O)[C@H](CC(C)C)NC(=O)[C@H](CCC(=O)O)NC(=O)[C@H](CCCNC(=N)N)NC(=O)[C@@H](N)CC(C)C)C(=O)O | 3220 nM | 371 nM | 6960 nM | 655 nM | 544 nM | 9370 nM | 4010 nM | 235 nM | > 15000 nM | – | 5180 nM | –
11 | CC(C)C[C@H](NC(=O)[C@H](CCC(=O)O)NC(=O)[C@H](CCCCN)NC(=O)[C@H](C)N)C(=O)N[C@@H](CCCCN)C(=O)N[C@@H](Cc1ccccc1)C(=O)N[C@H](C(=O)N[C@H](C(=O)N[C@@H](CC(C)C)C(=O)N[C@H](C(=O)N[C@@H](Cc1ccccc1)C(=O)N[C@@H](CCCNC(=N)N)C(=O)N[C@@H](Cc1c[nH]cn1)C(=O)NCC(=O)N[C@@H](CC(=O)O)C(=O)O)C(C)C)[C@@H](C)O)C(C)C | 824 nM | 783 nM | – | – | 51 nM | 1950 nM | – | – | 8560 nM | 30000 nM | 24 nM | –
12 | AKTFLRTLVRGVPEY | 94 nM | 208 nM | 6.3 nM | 104 nM | 472 nM | 9.2 nM | 25 nM | 829 nM | 546 nM | 54200 nM | 3480 nM | –
13 | CC[C@H](C)[C@H](NC(=O)[C@@H](NC(=O)[C@H](Cc1c[nH]cn1)NC(=O)[C@@H](N)CCCNC(=N)N)C(C)C)C(=O)N[C@@H](Cc1ccc(O)cc1)C(=O)N[C@@H](C)C(=O)N1CCC[C@H]1C(=O)N[C@@H](CO)C(=O)N[C@@H](CO)C(=O)N[C@@H](Cc1c[nH]cn1)C(=O)N[C@@H](CC(N)=O)C(=O)N[C@@H](CCCCN)C(=O)N[C@@H](Cc1ccc(O)cc1)C(=O)N[C@@H](C)C(=O)NCC(=O)O | – | 481 nM | 13400 nM | 2170 nM | 5290 nM | 11700 nM | 31200 nM | – | > 62800 nM | – | 88 nM | 481 nM
14 | RPGLLGASVLGLDDI | 2060 nM | 6520 nM | > 93900 nM | – | 22000 nM | > 61200 nM | – | 6000 nM | 30200 nM | 35800 nM | > 88900 nM | –
15 | CC(C)C[C@H](NC(=O)[C@@H](NC(=O)CN)C(C)C)C(=O)N[C@H](C(=O)N[C@@H](Cc1c[nH]cn1)C(=O)N1CCC[C@H]1C(=O)N[C@@H](CCC(N)=O)C(=O)N[C@@H](Cc1c[nH]c2ccccc12)C(=O)N[C@H](C(=O)N[C@@H](CC(C)C)C(=O)N[C@H](C(=O)N[C@@H](C)C(=O)N[C@@H](C)C(=O)N[C@@H](Cc1c[nH]cn1)C(=O)N[C@@H](CS)C(=O)O)[C@@H](C)O)C(C)C)C(C)C | 2430 nM | 67 nM | – | 87 nM | 6.2 nM | 1930 nM | – | 66 nM | > 10700 nM | 21300 nM | – | –
